The source of these data is EP4620466A1, “TRIMETHOXYSTYRYL DERIVATIVES FOR USE IN THE TREATMENT OF PACLITAXEL-RESISTANT CANCER” (Instituto de Investigación Biomédica de Salamanca De la …, priority 2024, dated 2025).

Assay type in all cases: cell-based
In experiment [1] the test system is HeLa cells. Description: Cell proliferation assay (XTT), cytostatic activity. As to conditions: Homo sapiens, 72-h treatment, XTT cell proliferation kit. As for the experimental part: […] cells were seeded in 96-well plates and incubated in the presence or the absence of the indicated compounds at concentrations ranging from 10^-5 to 10^-12 M. The cytostatic activity was measured after 72-h treatments using the XTT (sodium 3'-[1-(phenylaminocarbonyl)-3,4-tetrazolium]-bis(4- methoxy-6-nitro)-benzenesulfonic acid hydrate) cell proliferation kit (Roche Molecular Biochemicals; Mannheim, Germany) following the manufacturer's specifications. Each condition was seeded in triplicate, and experiments were repeated three times to calculate IC values by non-linear regression fitting the data.
Background: Tetrazolium assays rely on reduction of a dye to a coloured formazan, in cell work by metabolically active cells.

Experiment [2] deals with HeLa cells. The experiment in a line: Cell proliferation assay with and without verapamil (MDR transporter check). As to conditions: for potency increase with addition of verapamil: with verapamil versus without.
The next experiment deals with CAL33 RPTX. Description: MTT cell viability assay in paclitaxel-resistant cell line. As to conditions: for sensitivity of paclitaxel-resistant cells (cell viability): CAL33 RPTX compared with parental CAL33, 24, 48 and 72 hours of exposure, six doses (Figures 1 and 2). As for the experimental part: • Figure 1. Comparison of the effect on cell viability in the parental and paclitaxel-resistant CAL33 cell lines after 24, 48 and 72 hours of exposure to six different doses of paclitaxel. X axis, time (hours). Y axis, cell viability (%). • Figure 2. Comparison of the effect on cell viability in the parental and paclitaxel-resistant CAL33 cell lines after 24, 48 and 72 hours of exposure to six different doses of Compound 39. X axis, Compund 39 (nM). Y axis, cell viability (%). *p-value < 0.05. **p-value < 0.01. ***p-value < 0.001.
In order to characterise resistance to taxanes in HNSCC, a paclitaxel-resistant cell line was generated from the CAL33 cell line, derived from tongue carcinoma, following the method of progressively increasing the dose of cytotoxic agent on the cells in culture. The generation of a stable paclitaxel-resistant cell line was confirmed by an MTT cell viability assay, named CAL33 RPTX (Figure 1).
In order to search for an alternative treatment with a similar but effective cellular effect on paclitaxel-resistant HNSCC cells, a cell viability assay was performed to test the response to Compound 39 of the CAL33 and CAL33 RPTX cell lines.

Setting [3] is: Homo sapiens, without verapamil (control), compounds for 72 h, read-out: potency in the absence of verapamil.
[4] abbreviates: read-out: potency in the presence of 10 µM verapamil, incubated with 10 µM verapamil for 2 h, then compounds for 72 h.

As for `COc1cc(N(C)S(=O)(=O)c2ccc3c(c2)c(C#N)cn3C)cc(OC)c1OC` [Compound 51, 3-Cyano-N,1-dimethyl-N-(3,4,5-trimethoxyphenyl)-1H-indole-5-sulfonamide], the figures for the IC50 with HeLa cells [1], in the experiment on HeLa cells [2] (setting [3]) and in the experiment on HeLa cells [2] (setting [4]) were 12.3 nM, 12.3 nM and 10.6 nM, respectively.
Consider `COc1cc(OC)cc(N(C)S(=O)(=O)c2ccc3c(c2)c(C=O)cn3C)c1` [Compound 52, N-(3,5-dimethoxyphenyl)-3-formyl-N,1-dimethyl-1H-indole-5-sulfonamide], for which the IC50 in the experiment on HeLa cells [1], in the experiment on HeLa cells [2] (setting [3]) and in the experiment with HeLa cells [2] (setting [4]) was above 1000 nM each time.
Turning to `COc1cc(N(C)S(=O)(=O)c2ccc3c(ccn3C)c2)cc(OC)c1OC` [Compound 46, N,1-dimethyl-N-(3,4,5-trimethoxyphenyl)-1H-indole-5-sulfonamide], the IC50 came to 2.4 nM in the experiment with HeLa cells [1], 2.4 nM with HeLa cells [2] (setting [3]) and 1.9 nM in the experiment with HeLa cells [2] (setting [4]).
In the case of `COc1cc(NS(=O)(=O)c2ccc3c(ccn3C)c2)cc(OC)c1OC` [Compound 44, 1-Methyl-N-(3,4,5-trimethoxyphenyl)-1H-indole-5-sulfonamide], the IC50 with HeLa cells [1] was determined as 10.8 nM; with HeLa cells [2] (setting [3]), 10.8 nM; in the experiment with HeLa cells [2] (setting [4]), 8.4 nM.
Turning to `COc1cc(NS(=O)(=O)c2ccc3c(ccn3C)c2)cc(OC)c1` [Compound 45, N-(3,5-dimethoxyphenyl)-1-methyl-1H-indole-5-sulfonamide], the IC50 was 1400 nM in the experiment with HeLa cells [1], above 1000 nM in the experiment on HeLa cells [2] (setting [3]) and above 1000 nM in the experiment on HeLa cells [2] (setting [4]).
On to `COc1cc(N(C)S(=O)(=O)c2ccc3c(c2)c(C=O)cn3C)cc(OC)c1OC` [Compound 49, 3-Formyl-N,1-dimethyl-N-(3,4,5-trimethoxyphenyl)-1H-indole-5-sulfonamide], for which the IC50 in the experiment with HeLa cells [1] was found to be 41 nM; with HeLa cells [2] (setting [3]), 41.2 nM; in the experiment on HeLa cells [2] (setting [4]) it was 44.7 nM.
The molecule `COc1cc(/C=C\c2ccc3c(c2)c(C(N)=O)cn3C)cc(OC)c1OC` [Compound 39, (Z)-1-Methyl-5-(3,4,5-trimethoxystyryl)-1H-indole-3-carboxamide] displayed an IC50 in the experiment on HeLa cells [1] of 1200 nM. Besides, the “sensitivity of paclitaxel-resistant cells (cell viability)” value with CAL33 RPTX is on record as “maintain sensitivity”. In addition, the “effect on tumour cell viability” value in the experiment with CAL33 RPTX (at very low doses, CAL33 and CAL33 RPTX cell lines (Figure 2)) is on record as “pronounced effect”.
Turning to `COc1cc(NS(=O)(=O)c2ccc3c(c2)c(C=O)cn3C)cc(OC)c1OC` [Compound 48, 3-Formyl-1-methyl-N-(3,4,5-trimethoxyphenyl)-1H-indole-5-sulfonamide], the IC50 is 206 nM in the experiment with HeLa cells [1], 206 nM in the experiment on HeLa cells [2] (setting [3]) and 287 nM with HeLa cells [2] (setting [4]).
Consider `COc1cc(NS(=O)(=O)c2ccc3c(c2)c(C#N)cn3C)cc(OC)c1OC` [Compound 50, 3-Cyano-1-methyl-N-(3,4,5-trimethoxyphenyl)-1H-indole-5-sulfonamide], for which the IC50 in the experiment on HeLa cells [1] was 21 nM; with HeLa cells [2] (setting [3]) it was 21.4 nM; in the experiment on HeLa cells [2] (setting [4]) it was 25.5 nM.
The corresponding values for `COc1cc(OC)cc(N(C)S(=O)(=O)c2ccc3c(c2)c(C#N)cn3C)c1` [Compound 53, 3-cyano-N-(3,5-dimethoxyphenyl)-N,1-dimethyl-1H-indole-5-sulfonamide] are above 1000 nM, 551 nM and 642 nM.
With `CC(=O)O[C@H]1C(=O)[C@@]2(C)[C@H]([C@H](OC(=O)c3ccccc3)[C@]3(O)C[C@H](OC(=O)[C@H](O)[C@@H](NC(=O)c4ccccc4)c4ccccc4)C(C)=C1C3(C)C)[C@]1(OC(C)=O)CO[C@@H]1C[C@@H]2O` [paclitaxel], the “sensitivity of paclitaxel-resistant cells (cell viability)” value in the experiment on CAL33 RPTX is “resistant”.
With `COc1cc(/C=C\c2ccc3c(c2)c(/C=N/O)cn3C)cc(OC)c1OC` [Compound 31, (Z + E)-1-methyl-5-(3,4,5-trimethoxystyryl)-1H-indole-3-carbaldehyde oxime], the “potency increase with addition of verapamil” value in the experiment on HeLa cells [2] was “more than 10 fold”.
On the same count and under the same terms, next, `COc1cc(/C=C\c2ccc3c(c2)c(C=O)cn3C)cc(OC)c1OC` [Compound 29, (Z)-1-Methyl-5-(3,4,5-trimethoxystyryl)-1H-indole-3-carbaldehyde]: “more than 10 fold”; `COc1cc(/C=C\c2ccc3c(c2)c(C#N)cn3C)cc(OC)c1OC` [Compound 33, (Z)-1-Methyl-5-(3,4,5-trimethoxystyryl)-1H-indole-3-carbonitrile]: “more than 10 fold”.
As for `COc1ccc(CCN(C)CCCC(C#N)(c2ccc(OC)c(OC)c2)C(C)C)cc1OC` (stereo not drawn) [Verapamil, verapamil, reference compound], in the experiment with HeLa cells [2] (verapamil alone at the working concentrations (1 and 10 µM)), the “effect on cell proliferation” value is listed as “no effect”.
In the case of `COc1cc(OC)cc(N(C)S(=O)(=O)c2ccc3c(ccn3C)c2)c1` [Compound 47, N-(3,5-dimethoxyphenyl)-N,1-dimethyl-1H-indole-5-sulfonamide], the IC50 worked out at 20.1 nM in the experiment on HeLa cells [1], 551 nM in the experiment with HeLa cells [2] (setting [3]) and 642 nM in the experiment on HeLa cells [2] (setting [4]).
In the experiment on HeLa cells [1], `CSc1cc(C(=NO)c2ccc3c(ccn3C)c2)cc(SC)n1` (mixture of isomers) [Compound 75, (E/Z)-(2,6-bis(methylsulfanyl)pyridin-4-yl) (1-methyl-1H-indol-5-yl)methanone oximes] returned an IC50 of 500 nM.
